Reference: PubChem BioAssay AID256 (DTP/NCI, 2004)
Inconclusive results and toxic doses are left out. The calls were made as follows: active = survival T/C of 150% or more; inactive = T/C below 125% in these data.

Tested on: CD2F1 mice, L1210 leukemia ip, survival T/C
Assay: NCI In Vivo Anticancer Drug Screen. Data for tumor model L1210 Leukemia (intraperitoneal) in CD2F1 (CDF1) mice
Conditions: higher = longer survival
In short: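 Mice carrying a transplanted tumor received test compound or vehicle alone. The value is the measurement in the treated group divided by that in the vehicle-treated control group.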

[1] = endpoint: mean survival time, dose: 100.0 mg/kg/injection, schedule: Q04DX003 (ip), vehicle: saline with Tween-80
[2] = endpoint: mean survival time, dose: 200.0 mg/kg/injection, schedule: Q04DX003 (ip), vehicle: saline with Tween-80
[3] = endpoint: mean survival time, dose: 400.0 mg/kg/injection, schedule: Q04DX003 (ip), vehicle: saline with Tween-80
[4] = endpoint: mean survival time, dose: 100.0 mg/kg/injection, schedule: Q04DX002 (ip), vehicle: saline with Tween-80
[5] = endpoint: mean survival time, dose: 200.0 mg/kg/injection, schedule: Q04DX002 (ip), vehicle: saline with Tween-80
[6] = endpoint: mean survival time, dose: 100.0 mg/kg/injection, schedule: Q01DX001 (ip), vehicle: saline with Tween-80
[7] = endpoint: mean survival time, dose: 200.0 mg/kg/injection, schedule: Q01DX001 (ip), vehicle: saline with Tween-80
[8] = endpoint: mean survival time, dose: 400.0 mg/kg/injection, schedule: Q01DX001 (ip), vehicle: saline with Tween-80
[9] = endpoint: mean survival time, dose: 100.0 mg/kg/injection, schedule: Q04DX003 (ip), vehicle: saline
[10] = endpoint: mean survival time, dose: 200.0 mg/kg/injection, schedule: Q04DX003 (ip), vehicle: saline
[11] = endpoint: mean survival time, dose: 400.0 mg/kg/injection, schedule: Q04DX003 (ip), vehicle: saline

Measured: T/C

c1ccc2c(c1)OC1(CCCCC1)O2
inactive: [1] 100 % of control | [2] 103 % of control | [3] 102 % of control

C=C1CC23CC[C@H]4[C@@](C)(CCC[C@@]4(C)C(=O)O)[C@@H]2CC[C@]1(OC1OC(COC(C)=O)C(OC(C)=O)C(OC(C)=O)C1OC1OC(COC(C)=O)C(OC(C)=O)C(OC(C)=O)C1OC(C)=O)C3 (some centres not stated)
inactive: [4] 93 % of control | [5] 89 % of control | endpoint: mean survival time, dose: 400.0 mg/kg/injection, schedule: Q04DX002 (ip), vehicle: saline with Tween-80 96 % of control

O=C(O)/C=C\SCCCC(=O)O
inactive: [6] 94 % of control | [7] 111 % of control | [8] 103 % of control

CC1=C(C)CC(C(Cl)(Cl)Cl)C([N+](=O)[O-])C1 (configuration not stated)
inactive: [1] 98 % of control | [2] 96 % of control

CCCC(=O)Nc1ccn(C2OC(COC(=O)CCC)C(OC(=O)CCC)C2OC(=O)CCC)c(=O)n1 (configuration not stated)
inactive: endpoint: mean survival time, dose: 100.0 mg/kg/injection, schedule: Q01DX009 (ip), vehicle: Klucel (hydroxypropylcellulose) (HPC) 112 % of control | endpoint: mean survival time, dose: 200.0 mg/kg/injection, schedule: Q01DX009 (ip), vehicle: Klucel (hydroxypropylcellulose) (HPC) 114 % of control

CNCc1ccc([N+](=O)[O-])cc1
inactive: endpoint: mean survival time, dose: 50.0 mg/kg/injection, schedule: Q01DX009 (ip), vehicle: saline 104 % of control | endpoint: mean survival time, dose: 100.0 mg/kg/injection, schedule: Q01DX009 (ip), vehicle: saline 100 % of control | endpoint: mean survival time, dose: 200.0 mg/kg/injection, schedule: Q01DX009 (ip), vehicle: saline 93 % of control

CCOC(=O)N(CCCl)C(=O)C(C)C
inactive: [9] 95 % of control | [10] 92 % of control | [11] 97 % of control

CCCCCCCCC(O)CCCCCCCCC(=O)O (configuration not stated)
inactive: [6] 93 % of control | [7] 87 % of control | [8] 87 % of control

CC12CCC(=O)C=C1CCC1C2CCC2(C)C(C(=O)O)CCC12 (configuration not stated)
inactive: [1] 102 % of control | [2] 96 % of control

CC(C)C(=O)OCC(C)(C)COC(=O)C(C)C
inactive: [9] 87 % of control | [10] 87 % of control | [11] 94 % of control

Cc1cccc(NNC(=S)Nc2ccccc2)c1
inactive: [9] 94 % of control | [10] 100 % of control | [11] 100 % of control

CCc1nc2c(=O)n(C3OC(CO)C(O)C3O)cnc2o1 (configuration not stated)
inactive: endpoint: mean survival time, dose: 100.0 mg/kg/injection, schedule: Q01DX005 (ip), vehicle: saline 100 % of control | endpoint: mean survival time, dose: 200.0 mg/kg/injection, schedule: Q01DX005 (ip), vehicle: saline 101 % of control

CN1CC2C(O)CCC1CC2O (configuration not stated)
inactive: endpoint: mean survival time, dose: 100.0 mg/kg/injection, schedule: Q04DX002 (ip), vehicle: saline 105 % of control | endpoint: mean survival time, dose: 200.0 mg/kg/injection, schedule: Q04DX002 (ip), vehicle: saline 90 % of control

S=C(Nc1ccccc1)NC1CCCCC1
inactive: [1] 100 % of control | [2] 102 % of control | [3] 97 % of control

O=[N+]([O-])O.[NH-]C1CCCCC1[NH-].[NH-]C1CCCCC1[NH-].[OH-].[OH-].[Pt+4].[Pt+4] (configuration not stated)
inactive: endpoint: mean survival time, dose: 1.25 mg/kg/injection, schedule: Q04DX003 (ip), vehicle: water 110 % of control

c1ccc(COCc2ccccc2Cn2ccnc2)cc1
inactive: endpoint: mean survival time, dose: 10.0 mg/kg/injection, schedule: Q04DX003 (ip), vehicle: saline 120 % of control | endpoint: mean survival time, dose: 20.0 mg/kg/injection, schedule: Q04DX003 (ip), vehicle: saline 101 % of control | endpoint: mean survival time, dose: 40.0 mg/kg/injection, schedule: Q04DX003 (ip), vehicle: saline 95 % of control

Cn1ncc(C#N)c1N
inactive: endpoint: mean survival time, dose: 100.0 mg/kg/injection, schedule: Q01DX001 (ip), vehicle: Klucel (hydroxypropylcellulose) (HPC) 117 % of control | endpoint: mean survival time, dose: 200.0 mg/kg/injection, schedule: Q01DX001 (ip), vehicle: Klucel (hydroxypropylcellulose) (HPC) 102 % of control | endpoint: mean survival time, dose: 400.0 mg/kg/injection, schedule: Q01DX001 (ip), vehicle: Klucel (hydroxypropylcellulose) (HPC) 102 % of control

CCCc1cc(CCC)nc(NNc2nc(CCC)cc(CCC)n2)n1
inactive: [1] 96 % of control | [2] 94 % of control | [3] 96 % of control

COc1cc(Cl)c(CC(=O)Cl)cc1OC
inactive: endpoint: mean survival time, dose: 75.0 mg/kg/injection, schedule: Q01DX001 (ip), vehicle: saline 105 % of control | endpoint: mean survival time, dose: 150.0 mg/kg/injection, schedule: Q01DX001 (ip), vehicle: saline 106 % of control | endpoint: mean survival time, dose: 300.0 mg/kg/injection, schedule: Q01DX001 (ip), vehicle: saline 95 % of control

CC(C)(C[P+](C)(c1ccccc1)c1ccccc1)c1ccccc1
inactive: endpoint: mean survival time, dose: 50.0 mg/kg/injection, schedule: Q04DX002 (ip), vehicle: saline with Tween-80 98 % of control | [4] 102 % of control

O=C(O)O.[Co]
inactive: endpoint: mean survival time, dose: 400.0 mg/kg/injection, schedule: Q01DX001 (ip), vehicle: saline 105 % of control

Nc1nc(N)c(-c2cccc(Cl)c2)c(COc2ccc([N+](=O)[O-])cc2)n1
inactive: [6] 94 % of control | [7] 92 % of control | [8] 93 % of control

CCOC(=O)C(=O)NCCc1ccc2c(c1)OCO2
inactive: [6] 97 % of control | [7] 95 % of control | [8] 100 % of control

O=C1c2ccccc2S(=O)(=O)N1CCBr
inactive: endpoint: mean survival time, dose: 100.0 mg/kg/injection, schedule: Q01DX009 (ip), vehicle: saline with Tween-80 97 % of control | [1] 106 % of control | endpoint: mean survival time, dose: 200.0 mg/kg/injection, schedule: Q01DX009 (ip), vehicle: saline with Tween-80 100 % of control | [2] 106 % of control | endpoint: mean survival time, dose: 400.0 mg/kg/injection, schedule: Q01DX009 (ip), vehicle: saline with Tween-80 102 % of control | [3] 110 % of control

O=[N+]1C=CC(=NN=c2ccn([O-])cc2)C=C1
inactive: [4] 100 % of control | [5] 96 % of control

NC(=O)C(CO)NC(=O)OCc1ccccc1 (configuration not stated)
inactive: endpoint: mean survival time, dose: 25.0 mg/kg/injection, schedule: Q01DX005 (ip), vehicle: water 103 % of control | endpoint: mean survival time, dose: 50.0 mg/kg/injection, schedule: Q01DX005 (ip), vehicle: water 104 % of control | endpoint: mean survival time, dose: 100.0 mg/kg/injection, schedule: Q01DX005 (ip), vehicle: water 95 % of control | endpoint: mean survival time, dose: 200.0 mg/kg/injection, schedule: Q01DX005 (ip), vehicle: water 97 % of control | endpoint: mean survival time, dose: 400.0 mg/kg/injection, schedule: Q01DX005 (ip), vehicle: water 93 % of control

O=C(O)c1cnc(Cl)c(Br)c1
inactive: [6] 103 % of control | [1] 97 % of control | [7] 93 % of control | [2] 93 % of control | [8] 98 % of control | [3] 93 % of control

CC(C(=O)c1cccs1)=C(C(F)(F)F)C(F)(F)F
inactive: endpoint: mean survival time, dose: 6.25 mg/kg/injection, schedule: Q01DX009 (ip), vehicle: other 100 % of control | endpoint: mean survival time, dose: 12.5 mg/kg/injection, schedule: Q01DX009 (ip), vehicle: other 94 % of control | endpoint: mean survival time, dose: 25.0 mg/kg/injection, schedule: Q01DX009 (ip), vehicle: other 100 % of control | endpoint: mean survival time, dose: 50.0 mg/kg/injection, schedule: Q01DX009 (ip), vehicle: other 97 % of control

CC1(C)N=C(N)N=C(N)N1c1ccc(CCCCc2ccc(S(=O)(=O)F)cc2)c(Cl)c1
inactive: endpoint: mean survival time, dose: 13.0 mg/kg/injection, schedule: Q01DX009 (ip), vehicle: saline with Tween-80 116 % of control | endpoint: mean survival time, dose: 20.0 mg/kg/injection, schedule: Q01DX009 (ip), vehicle: saline with Tween-80 120 % of control | endpoint: mean survival time, dose: 45.0 mg/kg/injection, schedule: Q01DX009 (ip), vehicle: saline with Tween-80 93 % of control

CCCCNc1ncnc2c1cnn2C
inactive: endpoint: mean survival time, dose: 4.0 mg/kg/injection, schedule: Q01DX Z (ip), vehicle: saline 97 % of control | endpoint: mean survival time, dose: 8.0 mg/kg/injection, schedule: Q01DX Z (ip), vehicle: saline 96 % of control | endpoint: mean survival time, dose: 12.5 mg/kg/injection, schedule: Q01DX005 (ip), vehicle: saline with Tween-80 94 % of control | endpoint: mean survival time, dose: 16.0 mg/kg/injection, schedule: Q01DX Z (ip), vehicle: saline 100 % of control | endpoint: mean survival time, dose: 25.0 mg/kg/injection, schedule: Q01DX005 (ip), vehicle: saline with Tween-80 100 % of control | endpoint: mean survival time, dose: 31.0 mg/kg/injection, schedule: Q01DX Z (ip), vehicle: saline 103 % of control | endpoint: mean survival time, dose: 50.0 mg/kg/injection, schedule: Q01DX005 (ip), vehicle: saline with Tween-80 104 % of control | endpoint: mean survival time, dose: 100.0 mg/kg/injection, schedule: Q01DX005 (ip), vehicle: saline with Tween-80 98 % of control | endpoint: mean survival time, dose: 200.0 mg/kg/injection, schedule: Q01DX005 (ip), vehicle: saline with Tween-80 100 % of control | endpoint: median survival time, dose: 31.3 mg/kg/injection, schedule: Q01DX009 (ip), vehicle: saline 100 % of control | endpoint: median survival time, dose: 62.5 mg/kg/injection, schedule: Q01DX009 (ip), vehicle: saline 100 % of control | endpoint: median survival time, dose: 125.0 mg/kg/injection, schedule: Q01DX009 (ip), vehicle: saline 105 % of control
